# Experiments:
# [1] = test system: arthritis (calcification of joints); assay: Treatment of a patient with arthritis; format: in vivo, human; details: one patient, subcutaneous 10 mg once a week for one month, then once a month
# Method: A patient with arthritis was treated by subcutaneous injection of 10 mg once a week for one month and then once a month for maintenance doses. A visible indication of arthritis is calcification of joints.
# [2] = test system: Stage IV pancreatic cancer; assay: Treatment of a patient with Stage IV pancreatic cancer; format: in vivo, human; details: one patient
# Method: A diabetic since 12/01 was diagnosed with Stage IV pancreatic cancer in May 2002 with metastatic diseases in their liver. Median survival time of patients with Stage IV pancreatic cancer is 4.5 months. Median survival time of patients with Stage IV pancreatic cancer when treated with gemcitabine is 4.8 months. The longest anyone lived on gemcitabine treatment has been 19 months.
# The patient of this case started JC15-10N peptide treatment on August 2002. The patient was given 0.5 mg/kg peptide sub-cutaneously. The patient weighted 128 lbs. and therefore they received 29 mg/injection per week. […] After receiving the peptide for more than 19 months, the patient was doing fine. The patient passed away from unrelated causes on July 2004.
# [3] = test system: Feline Immunodeficiency virus FIV; assay: Treatment of a lion infected with FIV; format: in vivo; details: weekly 70 mg I.M injections
# From the text: Nasty is a male lion in North Carolina Zoological Park. He was diagnosed to suffer Feline Immunodeficiency virus FIV. FIV attacks the immune system of cats, much like the human immunodeficiency virus (HIV) attacks the immune system of human beings. FIV infects many cell types in its host, including CD4+ and CD8+ T lymphocytes, B lymphocytes, and macrophages. FIV eventually leads to debilitation of the immune system in its feline hosts by the infection and exhaustion of T-helper (CD4+) cells.
# Nasty was treated weekly with 70 mg I.M injections of JC15-10N. […] It can be seen that starting of peptide treatment stabilized the CD4+ cell counts.
# [4] = test system: ulcerative colitis / IBD and subsequent colon cancer in IL-10 deficient mice; assay: Murine model of ulcerative colitis: IL-10 deficient mice; format: in vivo, mouse
# From the text: An IL-10 deficient strain of mouse was used in the study to determine the ability of JC15-10N (a novel anti-inflammatory molecule) to limit their developing IBD and subsequent colon cancer.
# The Wild Type and IL-10 deficient mouse strains used in this study was obtained from Jackson Laboratories and are designated as:
# The following groups of animals comprised the present experiment:
# Controls: • 1. Controls (129 SvEv 129^−/− untreated) • 2. Controls (129 SvEv 129^−/− Sham/Saline Only) • 3. 129 SvEv Wild-type Controls (untreated) • 4. 129 SvEv Wild-type (Sham/Saline Only)
# Treatments with JC15-10N: • 1. Pre-inflammatory (129 SvEv 129^−/−-Prevention-1 injection/week) • 2. Frank inflammatory (129 SvEv 129^−/−-Treatment-1 injection/week) • 3. Pre-inflammatory (129 SvEv 129^−/−-Prevention-1* injections/week) • 4. Frank-inflammatory (129 SvEv 129^−/−-Treatment-1* injections/week) • 5. 129 SvEv Wild-type (Prevention-1 injection/week) • 6. 129 SvEv Wild-type (Treatment-1 injection/week) • 7. 129 SvEv Wild-type (Prevention-1* injections/week) • 8. 129 SvEv Wild-type (Treatment-1* injections/week) • 9 animals/group X 12 groups (including controls)=108 mice×2 repetitions=216 mice; 1 injection/week=0.5 mg/kg subQ and 1* injection/week=5.0 mg/kg subQ injection/week. • In order to encourage inflammation, prior to the start of the experiment, pathogenic murine strains of E. coli and E. faecalis bacteria were administered to the mice in the appropriate treatment groups via oral and anal gavages, designated EC/EF.
# Pre-inflammatory (4 wks.) and frank-inflammatory animals (6 wks.-8 wks) were treated with JC15-10N via subcutaneous injections every week for 14 weeks. The compound was diluted in saline to obtain treatment doses of 0.5 and 5.0 mg/kg of body weight respectively and was delivered subcutaneously using tuberculin needles. As controls, some animals were injected with saline only or remained uninjected during the course of the experiment. The procedure described by Hem and coworkers (Laboratory Animals Ltd. 1998. V 32. 364-368) was used to collect 100 micro-liters of blood from the lateral saphenous vein of all test animals once per week over the 14 weeks of peptide therapy. Blood serum was analyzed for changes in the levels of pro-inflammatory and anti-inflammatory cytokines over the 14-week treatment period. At the end of the 14-week treatment period animals were euthanized using a CO2 chamber and flushing the peritoneum with PBS will collect peritoneal lavage fluid. Colons were removed and flushed separately with PBS. Cytokine levels in the peritoneal lavage fluids and colonic fluids of all animals were compared. Following colonic flushes; colons were splayed and examined for inflammatory lesions. Lesions were excised with scissors and the remainder of the colon rolled into gut rolls. […]
# [5] = treated IL-10−/− mice vs control IL-10−/− receiving no treatment
sequence,measurement,setting,value
FAKKFAKKFK [JC15-10N],calcification of the ankle joints (x-ray),[1],disappeared
same,need for diabetic medication (indicating primary tumor regressing),[2]; 0.5 mg/kg sub-cutaneously per week,required no more diabetic medication
same,metastatic disease in the liver,"[2]; 0.5 mg/kg sub-cutaneously, 29 mg/injection per week",diminished significantly
same,time on peptide with the patient doing fine,"[2]; Stage IV pancreatic cancer, 0.5 mg/kg sub-cutaneously per week",more than 19 months
same,absolute CD4+ cell counts,[3],stabilized
same,absolute CD8+ cell counts,[3],prevented the decrease
same,weight of the lion,[3],began to rise immediately
same,protective effect in IL-10 deficient mice,"[4]; 0.5 and 5.0 mg/kg subQ weekly, 14 weeks, preliminary data, 0.5 mg/kg somewhat better than 5.0 mg/kg",profound protective effect
same,colitis,[4]; [5],significant reduction
same,presence of advanced disease,[4]; [5],significant reduction
same,subsequent development of colon cancer,[4]; [5],significant reduction
